According to US8513292B2, “Compositions and methods for the treatment of cancer” (ArQule, Inc., priority 2007, dated 2013):
Where a SMILES comes first, the peptide text is derived from it. The star is where a group is joined. Cbz = O=C(OCc1ccccc1)*; CH2F = FC*

How the values were obtained:
[1] = tested on: HT29 cells; test: MTS assay; format: cell-based; details: Homo sapiens, HT-29, compound for 24 hours, then drug-free medium for additional 48 hours, MTS readout
Method: HT29 cells were seeded in 96-well plates at 1,800 cells/well overnight in medium with 10% FBS. The next day, cells were treated with increasing concentrations of compounds for 24 hours at 37° C. After the treatments, the compound-containing medium was removed, cells were washed twice with PBS, and incubated in drug-free medium containing 10% FBS for an additional 48 hours. After addition of MTS and PMS for 4 hours at concentrations of 2 mg/mL and 0.92 mg/mL, respectively, the results were quantitated by spectrophotometry at λ=490 nm and IC50 for each compound was determined

[2] = tested on: HT29 cells; test: Cell death by Annexin V-Fluos staining after siRNA transfection, high content imaging; format: cell-based; details: increasing concentrations of caspase inhibitor for 1 additional day after transfection
Method: Exponentially growing HT29 cells were plated in black 96-well plates at 5,000 cells/well overnight in medium with 10% FBS. The next day, cells were transiently transfected for 2 days using DharmaFECT 4 reagent with a pool of four met-specific 21-nucleotide RNA oligonucleotides forming a 19-bp duplex core with 2-nucleotide 3′ overhang in combination (Dharmacon, Inc., Lafayette, Colo.). Transfection of gapdh siRNA (Dharmacon, Inc.) and of a non-targeting siRNA under the same conditions was done in parallel as controls (Dharmacon, Inc.). Cells were then incubated in the absence or the presence of increasing concentrations of ZvAD-FMK, an irreversible caspase inhibitor for 1 additional day. Cells were incubated for at least 10 minutes in a labeling solution (10 mM HEPES, 140 mM NaCl and 6 mM CaCl2) containing 2 μg/ml Hoechst 33342 (blue channel; Molecular Probes/Invitrogen Corp., Natick, Mass.), 500 times diluted Annexin V-Fluos (green channel; Roche Applied Science, Indianapolis, Ind.) and 1 μg/ml propidium iodide (red channel; Roche Applied Science). High content image acquisition and analysis were carried out using a Beckman Coulter IC100 Cytometer. The program was set to take four images per well. […] Images were processed and numbers of positive cells for each channel and each condition were determined using Cytoshop 2.1 software (Beckman Coulter, Inc.). […]

[3] = biological target: T1, Recombinant unphosphorylated c-Met comprising residues 1038-1346 (Homo sapiens, UniProt P08581); test: c-Met p33 kinase assay (33P-ATP, IGF-1 Rtide substrate); format: biochemical; details: 15 minutes preincubation, 100 μM ATP, 30 minutes reaction
T1 construct: The DNA fragment encoding the kinase domain (1038-1346) was inserted into Novagen vector pet28a; six-histidine tag (N); made in house; host or cells: E. coli BL21(DE3)RIL
Source text: cDNA of full-length c-Met purchased from Origen Technologies was used as template for PCR amplification. The DNA fragment encoding the kinase domain (1038-1346) was inserted into Novagen vector pet28a between Nco1 and Sal1 sites. The primers were designed to contain a six-histidine tag to the N-terminus. In order to express dephosphorylated c-Met kinase protein, a tyrosine phosphatase PTP1B (1-283) was sequentially ligated into the made construct between SalI and Nod sites. A second ribosome binding site was incorporated in the PTP1B primer after the SalI site. The N-terminal His-tagged proteins were expressed in Circlegrow broth (Q-Biogen). The transformed E. Coli cell line BL21(DE3)RIL (Stratagene) was cultured to OD=0.8 at 37° C. and induced with 0.3 mM of IPTG for overnight at 12° C. The co-expressed protein was purified by metal-chelation chromatography followed by anion and cation columns. In brief, 4 liters of cells were lysed by sonication in 140 ml buffer containing 20 mM MOPS pH=6.5, 200 mM NaCl, 7.5% glycerol, 0.1% Igepal, supplied with 1 mM PMSF. The supernatant was obtained by centrifugation at 50,000 g for 30 minutes and followed by incubation with 8 mL of Ni-NTA His Bind resin (Novagen) at 4° C. for one hour. A second step 50 mL wash buffer (with 100 mM NaCl and 5 mM imidazole) was applied after initial wash with the lysis buffer. Protein was eluted by 200 mM imidazole pH=8.5, 100 mM NaCl and 7.5% glycerol and directly cleared by passing 10 mL QFF column. The salt concentration and the pH value of the protein flow through were adjusted to 50 mM and 7.5 by dilution, and then loaded to 1 mL SP FF column. The protein was further gel-filtered in an equilibrium buffer of 20 mM TrisHCl pH=8.5, 150 mM NaCl, 7.5% glycerol and 2 mM DTT. The monomeric unphosphorylated c-Met protein was concentrated to 30 mg/mL for storage at −80° C.
Recombinant unphosphorylated c-Met comprising residues 1038-1346 (12.5 ng) was pre-incubated with increasing concentrations of compounds for 15 minutes at room temperature. […]

T1 sequence (P08581 1038-1346): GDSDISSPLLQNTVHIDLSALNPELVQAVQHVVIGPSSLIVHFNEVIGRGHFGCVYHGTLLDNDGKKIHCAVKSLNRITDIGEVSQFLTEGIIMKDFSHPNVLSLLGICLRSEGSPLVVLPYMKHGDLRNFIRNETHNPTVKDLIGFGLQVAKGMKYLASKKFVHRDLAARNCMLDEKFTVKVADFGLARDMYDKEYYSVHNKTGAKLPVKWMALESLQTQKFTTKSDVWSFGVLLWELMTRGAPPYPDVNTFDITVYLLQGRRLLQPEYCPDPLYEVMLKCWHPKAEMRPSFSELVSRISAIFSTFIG

SMILES: O=C1NC(=O)[C@@H](c2c[nH]c3ccc(Br)cc23)[C@@H]1c1cc2c3c(ccn3CCC2)c1 (racemic) [Example 19, (±)-trans-3-(5-bromo-1H-indol-3-yl)-4-(5,6-dihydro-4H-pyrrolo[3,2,1-ij]quinolin-8-yl)-pyrrolidine-2,5-dione]
- IC50 [1]: ≤ 1 µM
- melting point: 195 to 200 °C

SMILES: O=C1NC(=O)[C@@H](c2c[nH]c3ccccc23)[C@@H]1Cc1cn2c3c(cccc13)CCC2 (racemic) [Example 6, (±)-trans-3-(5,6-dihydro-4H-pyrrolo[3,2,1-ij]quinolin-1-ylmethyl)-4-(1H-indol-3-yl)-pyrrolidine-2,5-dione]
- IC50 [1]: 1 to 10 µM
- melting point: 215 to 218 °C

SMILES: COC(=O)C[C@H](NC(=O)[C@H](C)NC(=O)[C@@H](NC(=O)OCc1ccccc1)C(C)C)C(=O)CF [ZvAD-FMK] (Cbz-Val-Ala-Asp(OMe)-CH2F)
- levels of cell death in met siRNA transfected cells [2]: decreased the levels of cell death

SMILES: O=C1NC(=O)[C@@H](c2ccccc2Cl)[C@@H]1c1cc2c3c(ccn3CCC2)c1 (racemic) [Example 22, (±)-trans-3-(2-chloro-phenyl)-4-(5,6-dihydro-4H-pyrrolo[3,2,1-ij]quinolin-8-yl)-pyrrolidine-2,5-dione]
- IC50 [1]: ≤ 1 µM
- melting point: 209 to 212 °C

SMILES: COc1cccc([C@@H]2C(=O)NC(=O)[C@H]2c2cc3c4c(ccn4CCC3)c2)c1 (racemic) [Example 25, (±)-trans-3-(5,6-dihydro-4H-pyrrolo[3,2,1-ij]quinolin-8-yl)-4-(3-methoxy-phenyl)-pyrrolidine-2,5-dione]
- IC50 [1]: ≤ 1 µM

SMILES: O=C1NC(=O)[C@H](c2c[nH]c3ccccc23)[C@@H]1C(=O)c1cn2c3c(cccc13)CCC2 (racemic) [Example 9, (±)-cis-3-(5,6-dihydro-4H-pyrrolo[3,2,1-ij]quinoline-1-carbonyl)-4-(1H-indol-3-yl)-pyrrolidine-2,5-dione]
- IC50 [1]: 1 to 10 µM
- IC50 [3]: ≥ 10 µM
- melting point: 283 to 285 °C

SMILES: O=C1NC(=O)[C@@H](c2cc3c4c(ccn4CCC3)c2)[C@H]1c1c[nH]c2ccccc12 (racemic) [Example 16]
- IC50 [1]: ≤ 1 µM
- IC50 [3]: ≥ 10 µM
- melting point: 141 to 145 °C

SMILES: O=C1NC(=O)[C@@H](c2cn3c4c(cccc24)CC3)[C@@H]1c1c[nH]c2ccccc12 (racemic) [Example 33, (±)-trans-3-(4,5-dihydro-pyrrolo[3,2,1-hi]indol-1-yl)-4-(1H-indol-3-yl)-pyrrolidine-2,5-dione]
- IC50 [1]: ≤ 1 µM
- IC50 [3]: ≥ 10 µM
- melting point: 144 to 148 °C
